Test results: patent US20050085447A1, “Pyrido[3,4-d]pyrimidine derivatives as matrix metalloproteinase-13 inhibitors” (Warner-Lambert Company LLC, priority 2003, published 2005)
Read-outs that look alike come from different tables or passages of the source.

Assays:
Format in all cases: biochemical
[1] = biological target: MMP-13 catalytic domain (Homo sapiens, UniProt P45452); assay: Thiopeptolide substrate hydrolysis inhibition assay, MMP-13 catalytic domain
Source text: The methods described below for the inhibition of MMP-13 may also be adapted and used to determine the ability of the compounds of Formula I to inhibit other matrix metalloproteases such as MMP-1, MMP-2, MMP-3, MMP-7, MMP-8, MMP-9, MMP-12, MMP-14, MMP-17, and the like.
Thiopeptolide substrates show virtually no decomposition or hydrolysis at or below neutral pH in the absence of a matrix metalloproteinase enzyme. A typical thiopeptolide substrate commonly utilized for assays is Ac-Pro-Leu-Gly-thioester-Leu-Leu-Gly-OEt. A 100 μL assay mixture will contain 50 mM of N-2-hydroxyethylpiperazine-N′-2-ethanesulfonic acid buffer (“HEPES,” pH 7.0), 10 mM CaCl2, 100 μM thiopeptolide substrate, and 1 mM 5,5′-dithio-bis-(2-nitro-benzoic acid) (DTNB). […] Assays are carried out with and without matrix metalloproteinase inhibitor compounds, and the amount of hydrolysis is compared for a determination of inhibitory activity of the test compounds.

[2] = biological target: T1, MMP-1 full-length (Homo sapiens, UniProt P03956); assay: Thiopeptolide substrate hydrolysis inhibition assay, MMP-1 full-length; details: full-length enzyme; read-out: MMP-1FL IC50
T1 construct: have also been assayed with MMP-1 full-length
T1 sequence (P03956 100-469): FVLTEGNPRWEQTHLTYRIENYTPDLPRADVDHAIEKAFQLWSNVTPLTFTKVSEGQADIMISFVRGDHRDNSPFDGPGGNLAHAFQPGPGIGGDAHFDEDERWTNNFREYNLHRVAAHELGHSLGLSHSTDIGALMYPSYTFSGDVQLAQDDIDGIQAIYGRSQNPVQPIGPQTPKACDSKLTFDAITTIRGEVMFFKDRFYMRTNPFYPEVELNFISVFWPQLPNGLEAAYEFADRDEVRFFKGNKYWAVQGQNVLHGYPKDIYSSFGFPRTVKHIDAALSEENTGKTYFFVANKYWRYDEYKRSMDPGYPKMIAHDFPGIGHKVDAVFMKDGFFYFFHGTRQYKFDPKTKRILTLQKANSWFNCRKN
Source text: (§1) The assay methods of Biological Examples 1-4 measure the amount by which a test compound reduces the hydrolysis of a thiopeptolide substrate catalyzed by a matrix metalloproteinase enzyme or catalytic domain thereof. It has been shown previously by Ye Qi-Zhuang, Hupe D., and Johnson L. (Current Medicinal Chemistry, 1996;3:407-418) that inhibitor activity against a catalytic domain of an MMP is predictive of the inhibitor activity against the respective full-length MMP enzyme. The methods described below for the inhibition of MMP-13 may also be adapted and used to determine the ability of the compounds of Formula I to inhibit other matrix metalloproteases such as MMP-1, MMP-2, MMP-3, MMP-7, MMP-8, MMP-9, MMP-12, MMP-14, MMP-17, and the like.
(§2) Thiopeptolide substrates show virtually no decomposition or hydrolysis at or below neutral pH in the absence of a matrix metalloproteinase enzyme. A typical thiopeptolide substrate commonly utilized for assays is Ac-Pro-Leu-Gly-thioester-Leu-Leu-Gly-OEt. A 100 μL assay mixture will contain 50 mM of N-2-hydroxyethylpiperazine-N′-2-ethanesulfonic acid buffer (“HEPES,” pH 7.0), 10 mM CaCl2, 100 μM thiopeptolide substrate, and 1 mM 5,5′-dithio-bis-(2-nitro-benzoic acid) (DTNB). […] The change in absorbance at 405 nm is monitored on a Thermo Max microplate reader (molecular Devices, Menlo Park, Calif.) at room temperature (22° C.). The calculation of the amount of hydrolysis of the thiopeptolide substrate is based on E412=13600 M^−1 cm^−1 for the DTNB-derived product 3-carboxy-4-nitrothiophenoxide. Assays are carried out with and without matrix metalloproteinase inhibitor compounds, and the amount of hydrolysis is compared for a determination of inhibitory activity of the test compounds.
(§3) Test compounds were evaluated at various concentrations in order to determine their respective IC50 values, the micromolar concentration of compound required to cause a 50% inhibition of catalytic activity of the respective enzyme.
(§4) Some representative compounds of Formula I have been evaluated for their ability to inhibit MMP-13, MMP-1FL, MMP-3CD, MMP-7FL, MMP-8FL, MMP-9FL, MMP-12CD, MMP-14CD, and/or MMP-17CD, wherein FL means full-length enzyme and CD means a catalytic domain of the full-length enzyme. Test compounds can be evaluated at various concentrations in order to determine their respective IC50 values, the micromolar concentration of compound required to cause a 50% inhibition of the hydrolytic activity of the respective enzyme.
(§5) Certain compounds of Formula I have also been assayed with MMP-1 full-length, MMP-3 catalytic domain, MMP-7 full-length, MMP-8 full-length, MMP-9 full-length, MMP-12 catalytic domain, MMP-14 catalytic domain, and MMP-17 catalytic domain. […] In Biological Table 2, the compound example numbers for the Compound Examples are indicated in the column labelled “Ex. No.”

[3] = biological target: T2, MMP-3 catalytic domain (Homo sapiens, UniProt P08254); assay: Thiopeptolide substrate hydrolysis inhibition assay, MMP-3 catalytic domain; details: MES buffer pH 6.0, read-out: MMP-3CD IC50
T2 construct: MMP-1 full-length, MMP-3 catalytic domain, MMP-7 full-length
Source text: as §1, §2, §3
It should be appreciated that the assay buffer used with MMP-3CD was 50 mM N-morpholinoethane sulfonate (“MES”) at pH 6.0 rather than the HEPES buffer at pH 7.0 described above.
as §4, §5

[4] = biological target: T3, MMP-7 full-length (Homo sapiens, UniProt P09237); assay: Thiopeptolide substrate hydrolysis inhibition assay, MMP-7 full-length; details: full-length enzyme; read-out: MMP-7FL IC50
T3 construct: MMP-3 catalytic domain, MMP-7 full-length, MMP-8 full-length
T3 sequence (P09237 95-267): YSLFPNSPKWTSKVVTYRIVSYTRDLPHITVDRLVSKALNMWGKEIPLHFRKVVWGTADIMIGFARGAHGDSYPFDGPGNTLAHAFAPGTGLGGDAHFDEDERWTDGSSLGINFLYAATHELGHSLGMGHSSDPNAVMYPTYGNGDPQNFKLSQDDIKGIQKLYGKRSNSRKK
Source text: as §1, §2, §3, §4, §5

[5] = biological target: T4, MMP-9 full-length (Homo sapiens, UniProt P14780); assay: Thiopeptolide substrate hydrolysis inhibition assay, MMP-9 full-length; details: full-length enzyme; read-out: MMP-9FL IC50
T4 construct: MMP-8 full-length, MMP-9 full-length, MMP-12 catalytic domain
Source text: as §1, §2, §3, §4, §5

[6] = biological target: T5, MMP-14 catalytic domain (Homo sapiens, UniProt P50281); assay: Thiopeptolide substrate hydrolysis inhibition assay, MMP-14 catalytic domain; details: read-out: MMP-14CD IC50
T5 construct: MMP-14 catalytic domain, and MMP-17 catalytic domain
Source text: as §1, §2, §3, §4, §5

[7] = biological target: T6, MMP-17 catalytic domain (Homo sapiens, UniProt Q9ULZ9); assay: Thiopeptolide substrate hydrolysis inhibition assay, MMP-17 catalytic domain; details: read-out: MMP-17 CD IC50
T6 construct: MMP-14 catalytic domain, and MMP-17 catalytic domain
T6 sequence (Q9ULZ9 126-295 limits assumed): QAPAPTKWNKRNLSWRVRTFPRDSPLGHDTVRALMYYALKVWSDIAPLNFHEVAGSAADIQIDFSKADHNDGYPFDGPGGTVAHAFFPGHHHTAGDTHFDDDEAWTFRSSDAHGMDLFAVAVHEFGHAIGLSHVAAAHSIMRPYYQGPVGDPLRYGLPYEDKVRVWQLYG
Source text: as §1, §2, §3, §4, §5

[8] = biological target: T7, MMP-8 full-length (Homo sapiens, UniProt P22894); assay: Thiopeptolide substrate hydrolysis inhibition assay, MMP-8 full-length; details: full-length enzyme; read-out: MMP-8FL IC50
T7 construct: MMP-7 full-length, MMP-8 full-length, MMP-9 full-length
Source text: as §1, §2, §3, §4, §5

[9] = MMP-13 catalytic domain, read-out: MMP-13CD IC50

T2 sequence (P08254 100-272 limits assumed): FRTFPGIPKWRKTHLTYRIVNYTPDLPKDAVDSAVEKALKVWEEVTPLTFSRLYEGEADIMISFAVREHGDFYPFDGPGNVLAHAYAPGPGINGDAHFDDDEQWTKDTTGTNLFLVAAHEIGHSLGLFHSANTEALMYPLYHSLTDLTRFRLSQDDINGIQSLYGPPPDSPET
T7 sequence (P22894 101-467): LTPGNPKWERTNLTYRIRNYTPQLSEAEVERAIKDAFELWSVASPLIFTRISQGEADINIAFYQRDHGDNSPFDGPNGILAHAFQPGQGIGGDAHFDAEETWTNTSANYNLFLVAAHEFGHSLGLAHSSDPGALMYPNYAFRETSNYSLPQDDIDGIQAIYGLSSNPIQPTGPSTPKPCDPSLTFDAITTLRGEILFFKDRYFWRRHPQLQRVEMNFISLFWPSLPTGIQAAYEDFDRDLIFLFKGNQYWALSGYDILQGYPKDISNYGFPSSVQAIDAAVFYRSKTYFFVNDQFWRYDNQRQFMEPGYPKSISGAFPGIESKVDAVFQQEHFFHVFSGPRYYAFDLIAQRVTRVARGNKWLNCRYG
T4 sequence (P14780 94-707): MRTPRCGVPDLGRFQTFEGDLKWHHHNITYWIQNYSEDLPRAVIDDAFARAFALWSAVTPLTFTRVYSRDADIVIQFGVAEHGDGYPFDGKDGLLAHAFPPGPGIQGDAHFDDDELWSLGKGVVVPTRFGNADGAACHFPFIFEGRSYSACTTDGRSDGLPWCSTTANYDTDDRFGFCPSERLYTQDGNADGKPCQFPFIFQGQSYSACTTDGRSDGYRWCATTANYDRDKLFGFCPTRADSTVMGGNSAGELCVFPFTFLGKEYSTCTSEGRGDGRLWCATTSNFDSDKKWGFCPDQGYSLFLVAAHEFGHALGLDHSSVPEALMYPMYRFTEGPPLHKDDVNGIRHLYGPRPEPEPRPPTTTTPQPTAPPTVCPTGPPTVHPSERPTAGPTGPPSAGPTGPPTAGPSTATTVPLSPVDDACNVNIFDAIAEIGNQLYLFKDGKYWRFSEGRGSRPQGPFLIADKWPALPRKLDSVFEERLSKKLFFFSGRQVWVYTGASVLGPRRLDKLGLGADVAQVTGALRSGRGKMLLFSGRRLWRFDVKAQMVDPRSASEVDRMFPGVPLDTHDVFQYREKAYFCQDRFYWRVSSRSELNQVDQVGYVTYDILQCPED

Compound | IC50 [2] [µM] | IC50 [3] [µM] | IC50 [4] [µM] | IC50 [5] [µM] | IC50 [6] [µM] | IC50 [7] [µM] | IC50 [1, 9] [µM] | IC50 [8] [µM] | IC50 [1] [µM]
O=C(O)c1ccc(Cn2cnc3cnc(C(=O)NCc4ccc(Cl)cc4)cc3c2=O)cc1 [Compound Example 4, 4-[6-(4-chloro-benzylcarbamoyl)-4-oxo-4H-pyrido [3,4-d]pyrimidin-3-ylmethyl]-benzoic acid] | > 100 | > 100 | > 100 | > 100 | > 100 | > 100 | – | – | 0.01
O=C(O)c1ccc(Cn2cnc3cnc(C(=O)NCc4cccc(C(F)(F)F)c4)cc3c2=O)cc1 [Compound Example 13, 4-[4-oxo-6-(3-trifluoromethyl-benzylcarbamoyl)-4H-pyrido[3,4-d]pyrimidin-3-ylmethyl]-benzoic acid] | > 100 | 48 | > 100 | > 100 | > 100 | > 100 | – | – | 0.0026
O=C(O)c1ccc(Cn2cnc3cnc(C(=O)NCc4ccc(C(F)(F)F)cc4)cc3c2=O)cc1 [Compound Example 12, 4-[4-oxo-6-(4-trifluoromethyl-benzylcarbamoyl)-4H-pyrido[3,4-d]pyrimidin-3-ylmethyl]-benzoic acid] | > 100 | > 100 | > 100 | > 100 | > 100 | > 100 | – | > 100 | 0.097
O=C(O)c1ccc(Cn2cnc3cnc(C(=O)NCc4cccc(F)c4)cc3c2=O)cc1 [Compound Example 11, 4-[6-(3-fluoro-benzylcarbamoyl)-4-oxo-4H-pyrido[3,4-d]pyrimidin-3-ylmethyl]-benzoic acid] | > 100 | > 100 | > 100 | > 100 | > 100 | > 100 | – | > 100 | 0.017

Second part, led by results:

IC50 [2] [µM] | IC50 [3] [µM] | IC50 [4] [µM] | IC50 [5] [µM] | IC50 [6] [µM] | IC50 [7] [µM] | IC50 [1, 9] [µM] | IC50 [8] [µM] | Compound | IC50 [1] [µM]
> 100 | > 100 | > 100 | > 100 | > 100 | > 100 | 0.032 | > 100 | O=C(O)c1ccc(Cn2cnc3cnc(C(=O)NCc4cccnc4)cc3c2=O)cc1 [Compound Example 3, 4-{4-oxo-6-[(pyridin-3-ylmethyl)-carbamoyl]-4H-pyrido[3,4-d]pyrimidin-3-ylmethyl}-benzoic acid] | –
> 100 | > 100 | > 30 | > 100 | > 30 | > 100 | 0.02 | > 100 | COc1cc(CNC(=O)c2cc3c(=O)n(Cc4ccc(C(=O)O)cc4)cnc3cn2)ccc1O [Compound Example 15, 4-[6-(4-hydroxy-3-methoxy-benzylcarbamoyl)-4-oxo-4H-pyrido[3,4-d]pyrimidin-3-ylmethyl]-benzoic acid] | –
> 100 | 14 | > 100 | > 100 | > 100 | > 100 | 0.0013 | > 100 | COc1cccc(CNC(=O)c2cc3c(=O)n(Cc4ccc(C(=O)O)cc4)cnc3cn2)c1 [Compound Example 2, 4-[6-(3-methoxy-benzylcarbamoyl)-4-oxo-4H-pyrido[3,4-d]pyrimidin-3-ylmethyl]-benzoic acid] | –
> 100 | 41 | > 100 | > 100 | > 100 | > 100 | – | > 100 | O=C(O)c1ccc(Cn2cnc3cnc(C(=O)NCc4cccc(Cl)c4)cc3c2=O)cc1 [Compound Example 10, 4-[6-(3-chloro-benzylcarbamoyl)-4-oxo-4H-pyrido[3,4-d]pyrimidin-3-ylmethyl]-benzoic acid] | –
> 100 | 42 | > 100 | > 100 | > 100 | > 100 | 0.0053 | > 100 | O=C(O)c1ccc(Cn2cnc3cnc(C(=O)NCc4ccc(F)c(F)c4)cc3c2=O)cc1 [Compound Example 14, 4-[6-(3,4-difluoro-benzylcarbamoyl)-4-oxo-4H-pyrido[3,4-d]pyrimidin-3-ylmethyl]-benzoic acid] | –
